# Measurements taken from patent US9416383B2, “Method for enhancing catalytic activity of a lipase” (University of North Carolina at Chapel Hill, priority 2007, dated 2016).
# Entries after “also recorded” stand apart in the source; their conditions may differ.
# Legend:
# human PLCβ3 (hPLCβ3) = biological target: T1, human PLCβ3 (hPLCβ3) (Homo sapiens, UniProt Q01970); experiment: PLCβ3 activity by cell free assay ([3H]-inositol phosphate formation from PIP2 in dodecylmaltoside mixed micelles); format: biochemical; conditions: for effect on activity of hPLCβ3 in DDM mixed micelles: FIG. 2; for effect on U73122-induced activation of hPLCβ3: FIGS. 3 and 6B
# T1 construct: confirmed alkylation at up to eight cysteine residues on the full length protein; gift: laboratory of Dr. T. K. Harden, University of North Carolina
# T1 sequence (Q01970 1-1234): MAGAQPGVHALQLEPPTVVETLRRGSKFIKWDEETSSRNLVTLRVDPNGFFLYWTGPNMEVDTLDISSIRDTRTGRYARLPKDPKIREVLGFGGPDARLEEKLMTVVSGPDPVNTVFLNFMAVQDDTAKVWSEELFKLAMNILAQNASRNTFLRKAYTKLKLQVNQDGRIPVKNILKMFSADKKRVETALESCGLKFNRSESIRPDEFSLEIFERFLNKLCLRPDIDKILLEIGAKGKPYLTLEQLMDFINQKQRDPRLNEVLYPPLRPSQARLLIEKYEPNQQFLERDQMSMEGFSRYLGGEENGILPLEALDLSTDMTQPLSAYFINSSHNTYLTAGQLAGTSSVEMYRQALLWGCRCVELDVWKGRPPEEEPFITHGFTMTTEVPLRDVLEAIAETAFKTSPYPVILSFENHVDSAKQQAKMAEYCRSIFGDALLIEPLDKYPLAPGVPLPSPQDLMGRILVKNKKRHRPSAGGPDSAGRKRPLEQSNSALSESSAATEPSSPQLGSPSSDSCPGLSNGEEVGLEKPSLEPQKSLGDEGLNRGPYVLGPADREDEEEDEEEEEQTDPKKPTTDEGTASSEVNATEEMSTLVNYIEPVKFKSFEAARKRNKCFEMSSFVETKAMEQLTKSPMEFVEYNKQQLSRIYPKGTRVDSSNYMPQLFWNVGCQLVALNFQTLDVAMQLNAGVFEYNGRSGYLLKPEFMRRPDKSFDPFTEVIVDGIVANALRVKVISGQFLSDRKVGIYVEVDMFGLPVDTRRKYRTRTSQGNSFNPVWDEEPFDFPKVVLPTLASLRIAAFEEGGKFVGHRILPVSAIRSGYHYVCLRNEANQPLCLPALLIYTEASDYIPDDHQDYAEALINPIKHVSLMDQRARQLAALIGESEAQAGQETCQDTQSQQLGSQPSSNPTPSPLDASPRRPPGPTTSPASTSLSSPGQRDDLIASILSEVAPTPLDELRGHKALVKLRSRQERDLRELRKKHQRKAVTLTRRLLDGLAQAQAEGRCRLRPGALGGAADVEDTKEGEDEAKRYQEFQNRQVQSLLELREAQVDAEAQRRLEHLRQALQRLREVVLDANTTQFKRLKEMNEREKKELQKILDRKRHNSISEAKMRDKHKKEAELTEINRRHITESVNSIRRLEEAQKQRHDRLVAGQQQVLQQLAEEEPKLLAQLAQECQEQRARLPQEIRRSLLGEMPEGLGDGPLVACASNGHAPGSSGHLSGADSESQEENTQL
# Experimental: Purified human PLCβ3 protein was generously provided by the laboratory of Dr. T. K. Harden (Department of Pharmacology, University of North Carolina, Chapel Hill, N.C., United States of America). […] Briefly, hot and cold phosphatidylinositol-4,5-bisphosphate (PIP2; 5 nmol), as substrate, was reconstituted in a 1 mM dodecylmaltoside solution and mixed with assay buffer containing 40 mM Hepes (pH 7.4), 480 mM KCl, 40 mM NaCl, 8 mM EGTA, 4 mM […], and 7.6 mM CaCl2. Compounds at desired concentrations and purified PLCβ3 in 1% fatty acid-free BSA and 10 mM Hepes (pH 7.0), were subsequently added to the mixture. To initiate assays, samples were moved to a 37° C. water bath and incubated for 2-10 minutes such that less than fifteen percent total substrate was hydrolyzed. At designated times, reactions were stopped by addition of 750 μl CHCl3:MeOH:HCl (40:80:1), 100 μl water, 250 μl CHCl3, and 250 μl 0.1M HCl. Samples were vortexed and centrifuged at 3000 rpm for 10 minutes at 4° C. The amount of formed [^3H]-inositol phosphates was measured by liquid scintillation counting of 500 μl of the upper phase in a Packard Tri Carb 4000 Series […].
# Data are expressed as mean±SD of three experiments performed in triplicate unless otherwise indicated. Statistical significance was evaluated using unpaired Students t tests. Data were modeled using Win-non Lin (Pharsight, Mountain View, Calif., United States of America) non-linear regression analysis for determination of EC50 (PLCβ3) and IC50 values.
# hPLCβ3 = biological target: T2, hPLCβ3 (Homo sapiens, UniProt Q01970); experiment: Mass spectrometry of intact hPLCβ3 and LC/MS/MS peptide sequencing (alkylation); conditions: FIG. 6A
# T2 construct: confirmed alkylation at up to eight cysteine residues on the full length protein; gift: laboratory of Dr. T. K. Harden, University of North Carolina
# T2 sequence (Q01970 1-1234): T1 sequence (Q01970 1-1234)
# Experimental: The mass-to-charge data were transformed to the mass domain using BioConfirm software from Agilent. For peptide sequencing, solution phase and SDS gel bands of unmodified and modified PLCβ3 was incubated with trypsin overnight at 37° C. […] The tryptic peptides were subsequently analyzed by nano-LC/MS/MS using a Dionex UltiMate nano LC (Sunnyvale, Calif., United States of America) coupled to Sciex (Toronto, Ontario, Canada) Q-Star Pulsar i mass spectrometer. The results were processed using MASCOT (Matrix Sciences, Boston, Mass., United States of America) protein database that had the mass of U73122 modification created as a variable modification.
# PLC in MDCK cells = conditions: ATP-stimulated, concentration dependent; cited from earlier work
# PLC in Caco-2 cells = conditions: ATP-stimulated, concentration dependent; cited from earlier work
# MDCK cell monolayers = conditions: concentration-dependent; cited from earlier work
# Caco-2 cell monolayers = conditions: concentration-dependent; cited from earlier work
effect on U73122-induced activation of hPLCβ3 (human PLCβ3 (hPLCβ3); DDM mixed micelles),Structure (SMILES),effect on activity of hPLCβ3 in DDM mixed micelles (human PLCβ3 (hPLCβ3); DDM mixed micelles),inhibition of PLC activity in MDCK cells (PLC in MDCK cells),inhibition of PLC activity in Caco-2 cells (PLC in Caco-2 cells),also measured
,COc1ccc2c(c1)CC[C@@H]1[C@@H]2CC[C@]2(C)[C@@H](NCCCCCCN3C(=O)C=CC3=O)CC[C@@H]12 [U73122],increases the activity,inhibits,inhibits,"EC50 (human PLCβ3 (hPLCβ3)): 14 ± 5 µM; time dependence of hPLCβ3 activation (human PLCβ3 (hPLCβ3); FIG. 4): time dependent; effect on tight junction permeability, MDCK monolayers (MDCK cell monolayers): enhances; effect on tight junction permeability, Caco-2 monolayers (Caco-2 cell monolayers): enhances"
,COc1ccc2c(c1)CC[C@@H]1[C@@H]2CC[C@]2(C)[C@@H](NCCCCCCN3C(=O)CCC3=O)CC[C@@H]12 [U73343],do not,does not,does not,
inhibit,N[C@@H](CS)C(=O)O [cysteine],,,,
inhibits,N[C@@H](CCC(=O)N[C@@H](CS)C(=O)NCC(=O)O)C(=O)O [glutathione],,,,"IC50 (human PLCβ3 (hPLCβ3); DDM mixed micelles, mean±SD, read-out: IC50 for inhibition of U73122-induced activation of hPLCβ3): 38 ± 16 µM"

Structure (SMILES),effect on U73122-induced activation of hPLCβ3 (human PLCβ3 (hPLCβ3); DDM mixed micelles),effect on activity of hPLCβ3 in DDM mixed micelles (human PLCβ3 (hPLCβ3); DDM mixed micelles),inhibition of PLC activity in MDCK cells (PLC in MDCK cells),inhibition of PLC activity in Caco-2 cells (PLC in Caco-2 cells),also measured
"CCN1C(=O)C=CC1=O [NEM, N-ethylmaleimide]",inhibits,do not; also recorded: inability to activate,,,alkylation of hPLCβ3 (hPLCβ3): alkylates hPLCβ3 at multiple amino acid residues
